Measurements as given in PMC3025356, “Mechanism of the Ca^2+-Dependent Interaction between S100A4 and Tail Fragments of Nonmuscle Myosin Heavy Chain IIA” (Journal of Molecular Biology, 2011).

Assays:
[1] = tested on: M200 filaments; type: biochemical, human
Experimental: Fig. 9 Dissociation of M200 filaments by S100A4. (a) Initially, M200 was added (i) from a concentrated stock in 0.5 M NaCl to give a final concentration of 5 μM M200 (with respect to the polypeptide chain) in 100 mM NaCl, 10 mM Hepes, and 0.1 mM Ca^2+ at pH 7.5 and 20 °C. A biphasic rise in turbidity was recorded for 200 s (continuous line). Then 10 μM S100A4 (with respect to monomer concentration) was added (ii), followed by 0.2 mM EGTA (iii) and 1 mM Ca^2+ (iv). […] (b) M200 was diluted (i) into 100 mM NaCl to form filaments as in (a), then 5 μM S100A4 was added (ii), causing a 54% drop in turbidity. A further 5 μM S100A4 (iii) caused turbidity to fall to almost zero. (c) Stopped-flow records monitoring the dissociation of 5 μM M200 filaments on jumping [NaCl] from 100 mM to 120 mM NaCl. Other components of the buffer were 20 mM Hepes, 1 mM Mg^2+, and 100 μM Ca^2+ at pH 7.5 and 20 °C. […] In the presence of 20 μM S100A4 (lower trace), the turbidity decreased by 87% with a rate constant of 0.2 s^− 1.
Absorption spectra were recorded using a Cary 50 spectrophotometer (Varian Ltd., Walton on Thames, UK). Protein concentrations were calculated from their absorbance at 280 nm, using molar coefficients of 2980 M^− 1 cm^− 1 (M200 and S100A4) and 1490 M^− 1 cm^− 1 (M111), based on their tyrosine content (two residues per chain and one residue per chain, respectively). Myosin fragments were measured in 0.5 M NaCl buffer, and care was taken to correct for the small contribution from turbidity. Protein concentrations are stated in terms of their monomeric polypeptide chain concentration. Under the conditions used for kinetic analysis, S100A4 is predominantly a dimer,[21,25] and M200 and M111 form stable coiled coils; therefore, the molar protein concentrations are half those given in all three cases. Fluorescence emission spectra were also checked, and those preparations containing a detectable shoulder at 340 nm due to contaminating tryptophan-containing proteins were subjected to further purification. F-M16^N concentrations were based on fluorescein absorbance (ɛ490 = 78,000 M^− 1 cm^− 1). […] Quin-2 concentrations were calculated from ɛ354 = 5000 M^− 1 cm^− 1 in the absence of Ca^2+.[39] Turbidity assays used to monitor M200 filament formation and solubilisation with manual mixing were carried out using a 10-mm pathlength and a 0.1-ml microcuvette (105.250-QS; Hellma, Southend on Sea, UK) at a wavelength of 300 nm. For determination of the free Ca^2+ concentration, Fura-2 fluorescence excitation spectra were measured in the same cuvette using the 2-mm path for excitation to minimise inner filter effects.

[2] = cited from earlier work
Experimental: S100A4 contains two tyrosine residues (one in each of the EF-hand domains), and mutating each in turn to phenylalanine enabled us to identify the source of the signal change. […] Ca^2+ binds to the S100A4 dimer with an affinity of around 2–6 μM. […] Regarding the assignment of the sites to EF1 or EF2, the E33Q mutant appears more similar to wild-type S100A4 than the D63N mutant and has an intact EF2 site, as determined by tyrosine and Quin-2 fluorescence (Fig. 3a; ...

[3] = tested on: M200 filaments; details: cited from earlier work
Text: Over the last two decades, there has been much interest in the role of the S100 Ca^2^+-binding protein family in the regulation of cellular events.[1,2] Identifying the specific targets of each of the 24 members[3] and deducing their mechanisms of action in vitro and in vivo remain to be a challenge. This is exemplified by S100A4 (also known as Mts1, metastasin, p9Ka, pEL98, calvasculin, and Fsp-1), which has been implicated in a wide range of cellular events and numerous diseases and binds to several different targets in vitro.[4–6] In particular, following early work,[7–9] there have been ma ... || A corresponding stoichiometry is also seen in the interaction of S100A4 with M200, where 2 mol of S100A4 monomer was required to solubilise 1 mol of M200 aggregate (when expressed as M200 polypeptide chain concentration) (Fig. 9b). […] These stoichiometries complicate the calculation of the equilibrium parameters for the models described in Schemes 1 and 2. If the binding sites remaine ...

[4] = cited from earlier work; remark: listed apart in the source
Text: Apart from the different methods used to study Ca^2+ binding, which have sensitivities over different concentration ranges, part of the variability in Kd values in the literature may arise from the self-association of S100A4. There is a general consensus[12,13,17,21,22] that S100A4 exists predominantly as a dimer at micromolar concentrations (indeed, this can lead to difficulties in interpreting literature values for stoichiometries quoted as ‘moles of Ca^2+ bound per mole of S100A4’ if the latter is not stated explicitly as being per monomer or per dimer). In the absence of Ca^2+, monomeric S ... || In the absence of added Ca^2+ (i.e., where the free “contaminant” [Ca^2+] in buffers would be of the order of 1 μM), mixing S100A4 with excess Quin-2 produced a small-amplitude signal (corresponding to 0.1 mol of Ca^2+ per mole of S100A4 monomer) with a rate constant of around 1 s^− 1.

Substance: S100A4: recombinant S100A4 expressed in E. coli BL21(DE3)
- S100A4 monomer excess per M200 chain required for full solubilisation [1]: 2 -fold molar excess
- drop in turbidity ([1]; 5 μM S100A4, M200 filaments, 100 mM NaCl): 54%
- effect of excess EGTA on solubilisation ([1]; excess EGTA): reversed the process, allowing M200 filaments to reform
- turbidity after further S100A4 ([1]; further 5 μM S100A4 (10 μM total)): almost zero
- S100A4 monomer required to solubilise 1 mol of M200 ([1]; per M200 polypeptide chain): 2 mol of S100A4 monomer
- Ca^2+ bound per S100A4 monomer ([2]; amplitude of tyrosine fluorescence change on addition of Ca^2+): 1.7 ± 0.18 Ca^2+ bound per S100A4 monomer
- Ca^2+ dissociation rate constant (tyrosine) [2]: 20 s^− 1
- dissociation of rod filaments ([3]; 20 mM NaCl): ineffective at dissociating rod filaments
- S100A4 dimer required to disassemble 1 mol of NM-MHC IIA rods ([3]; ref 11 (Li et al.)): 1 mol of S100A4 dimer
- protein concentration at which monomer is detected ([4]; absence of Ca^2+): below 2 μM
- concentration at which tetrameric and higher aggregates become significant ([4]; presence of Ca^2+): exceeding 20 μM
- Ca^2+ affinity of tetramer relative to dimer ([4]; suggested by ultracentrifuge data): about 20 -fold
